Measurements as given in US20240325353A1, “COMPOUND FOR TREATMENT OF COGNITIVE DISORDERS” (Syndesi Therapeutics SA, priority 2021, published 2024).
Several values for one entry are separate records, joined by “and”; a condition that tells them apart may be missing. Equal entries are not always repeated.

Legend:
[1] = biological target: T1, SV2A (Rattus norvegicus, UniProt Q02563); experiment: in vivo SV2A receptor occupancy in rats; conditions: ip, 0.1 mg/kg i.p., 60 minutes post administration
T1 construct: from tissue; host or cells: brain of living rats

[2] = biological target: SV2A (Homo sapiens, UniProt Q7L0J3); experiment: SV2A binding in vitro, displacement of levetiracetam
[3] = anti-convulsant activity in vivo
[4] = rodent preclinical cognitive deficit models; type: in vivo; conditions: range of rodent preclinical cognitive deficit models
[5] = biological target: T2, synaptic vesicle glycoprotein 2A (Homo sapiens, UniProt Q7L0J3); experiment: [11C]-UCB-J PET receptor occupancy after single oral dose, healthy male subjects, with PK/occupancy model; type: in vivo; conditions: for receptor occupancy: individual subjects
T2 construct: from tissue; host or cells: brain of living healthy male subjects (PET)
Protocol: All images were acquired using the PET/MR Scanner: GE Signa TOF PET-MR 3 Tesla with software version MP26. As gamma counter, a 1480 Wizard well type gamma counter met 3-inch NaI crystal was used.
[^11C]-UCB-J is a PET tracer for imaging the synaptic vesicle glycoprotein 2A in the human brain. [^11C]-UCB-J is (4R)-1-{[3-(^11C)Methylpyridin-4-yl]methyl}-4-(3,4,5-trifluorophenyl)pyrrolidin-2-one.
Participants arrived approximately 90 minutes prior to the scheduled scan. This allowed the positioning of all necessary peripheral catheters before the start of the PET scan. Prior to PET imaging, at the PET centre, an indwelling venous cannula was inserted into an antecubital vein of the forearm to inject the radioligand. When required, an indwelling arterial catheter was placed in the radial artery of the opposite arm (if not feasible, can be in same arm) by a trained physician after numbing the area with a local anaesthetic prior to placement to withdraw blood for the measurement of the PET input function. On each PET scan day, no more than 3 skin penetrations per arm and one arterial penetration per arm were permitted before trying in the other arm. The venous catheter was used for the injection of [^11C]-UCB-J. [^11C]UCB-J was administered as an i.v. bolus into the antecubital vein over approximately 20 seconds. The tracer volume was between 6 ml and 12 ml. With the pump system configured to inject 0.33 ml per second, tracer injection time varied between 18 sec and 36 sec. The arterial catheter was used for collection of arterial blood samples and no participant received more than two arterial catheterizations during their participation in the study. An arterial catheter was maintained for up to 2 days depending on evaluation by medical staff. In case two arterial catheters were placed during the study conduct, then placement in alternate wrists was done. If the medical staff decided to remove an arterial catheter at any given time, a new one was placed for a next scan taking into account that no more than two arterial catheterizations per participant were allowed. Participants were asked to void their bladder before the start of each PET scan. Participants were positioned in the PET scanner so that scans were acquired in 3D list-mode in one bed position and the entire brain volume was included in the field of view. At screening and simultaneous with the PET acquisition, both a 3D volumetric T1-weighted BRAVO sequence (plane: sagittal; TE: 3.2 ms; TR: 8.5 ms; TI: 450 ms; Flip Angle: 12; Receiver Bandwidth: 31.2; NEX: 1; voxelsize: 1×1×1 mm) and 3D T2-weighted CUBE FLAIR sequence (plane: sagittal direction; TE: 137 ms; #echoes: 1; echo train length: 190; TR: 8500 ms; […]; Receiver Bandwidth: 31.25; NEX: 1; voxelsize: 1.2×1.3×1.4 mm) were acquired to detect possible structural abnormalities, and serve as an anatomical reference to define ROIs when co-registered with the PET scan. To correct for attenuation, a Zero-Echo Time (ZTE) scan was taken to allow the generation of a MR based attenuation map. At intermediate time points during acquisition, the ZTE sequence was repeated to have additional data for adjusting the MR based attenuation map in case of severe head motion. Next to anatomical MR sequences, eASL and rs-fMRI data were acquired simultaneously with the PET data, to determine regional cerebral blood flow and regional interactions in the brain in a resting or task-negative state. At least one eASL and one rs-fMRI sequence were performed during the PET acquisition but these sequences were repeated if time allowed. The total duration of the emission scan was 90 minutes. PET data will be rebinned in time frames according to the following scheme: • 6×15s-3×30s-3×60s-2×90s-2×3 min-9×5 min-3×10 min […]

[6] = treatment-emergent adverse events, multiple dose study in young male subjects; type: in vivo, human
Description: Details on the adverse events occurring in the study is provided below. As may be seen the doses of interest were safe and well tolerated.

T2 sequence (Q7L0J3 whole entry): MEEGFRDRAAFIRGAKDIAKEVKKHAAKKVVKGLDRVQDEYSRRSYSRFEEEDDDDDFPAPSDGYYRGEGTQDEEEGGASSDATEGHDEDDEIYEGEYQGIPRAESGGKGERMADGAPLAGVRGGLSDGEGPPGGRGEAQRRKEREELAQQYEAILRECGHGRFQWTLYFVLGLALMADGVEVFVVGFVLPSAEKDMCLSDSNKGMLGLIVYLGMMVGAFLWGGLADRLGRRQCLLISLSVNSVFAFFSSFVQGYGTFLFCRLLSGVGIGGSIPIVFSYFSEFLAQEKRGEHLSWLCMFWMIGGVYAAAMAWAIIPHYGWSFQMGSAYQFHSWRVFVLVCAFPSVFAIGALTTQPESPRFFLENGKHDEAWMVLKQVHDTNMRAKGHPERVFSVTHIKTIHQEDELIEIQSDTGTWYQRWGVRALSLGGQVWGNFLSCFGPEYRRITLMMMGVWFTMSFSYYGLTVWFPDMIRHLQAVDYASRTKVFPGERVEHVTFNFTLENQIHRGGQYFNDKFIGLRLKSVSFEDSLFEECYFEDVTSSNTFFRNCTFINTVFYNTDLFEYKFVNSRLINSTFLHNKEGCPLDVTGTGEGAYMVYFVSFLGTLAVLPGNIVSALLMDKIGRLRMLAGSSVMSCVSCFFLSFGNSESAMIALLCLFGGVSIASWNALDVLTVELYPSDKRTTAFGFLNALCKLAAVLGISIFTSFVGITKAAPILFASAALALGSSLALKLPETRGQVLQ
SV2A (Homo sapiens, UniProt Q7L0J3), sequence (Q7L0J3 whole entry, species assumed): as the sequence (Q7L0J3 whole entry) above
T1 sequence (Q02563 whole entry): as the sequence (Q7L0J3 whole entry) above, with D53E, S62A, T71A, E144D, A154T, G440S, S482A, I572V, M634L counted along it

O=C1C[C@H](c2cc(F)c(F)c(F)c2)CN1Cn1ncnc1Cl [compound of example 1, (4R)-1-[(5-chloro-1H-1,2,4-triazol-1-yl)methyl]-4-(3,4,5-trifluorophenyl)pyrrolidin-2-one]
receptor occupancy at 0.1 mg/kg [1]: 20 to 50% | affinity of binding to SV2A (levetiracetam site) [2]: high affinity | displacement of the binding of levetiracetam to SV2A ([2]; in vitro): competitively displaces | anti-convulsant activity [3]: without anti-convulsant activity | effect on the anti-convulsant effect of levetiracetam [3]: competitively inhibits | pro-cognitive effects [4]: possesses pro-cognitive effects | receptor occupancy ([5]; 1 mg single oral dose, 22 h): below level of detection | receptor occupancy ([5]; 1 mg single oral dose, tmax (2 h)): 25% and 21% | receptor occupancy ([5]; 2 mg single oral dose, 22 h): 19% and 20% | receptor occupancy ([5]; 2 mg single oral dose, tmax (2 h)): 42% and 39% | receptor occupancy ([5]; 10 mg single oral dose, 22 h): 46% and 50% | receptor occupancy ([5]; 10 mg single oral dose, tmax (2 h)): 68% and 69% | receptor occupancy ([5]; 20 mg single oral dose, 26 h): 56% and 66% | receptor occupancy ([5]; 20 mg single oral dose, tmax (2 h)): 76% | emax of PK/occupancy model (mean) ([5]; humans): 84.9 | EC50 ([5]; humans, plasma concentration, read-out: EC50, plasma concentration vs SV2A occupancy (PK/occupancy model, mean) (converted)): 75.3 nM | At least 1 TEAE definitively related to treatment, n (%) ([6]; 5 mg, N = 6): 0 n (%) | At least 1 TEAE possibly related to treatment, n (%) ([6]; 5 mg, N = 6): 0 n (%) | At least 1 TEAE probably related to treatment, n (%) ([6]; 5 mg, N = 6): 0 n (%) | At least one TEAE, n (%) ([6]; 5 mg, N = 6): 0 n (%) | At least 1 TEAE definitively related to treatment, n (%) ([6]; 10 mg, N = 6): 0 n (%) | At least 1 TEAE possibly related to treatment, n (%) ([6]; 10 mg, N = 6): 0 n (%) | At least 1 TEAE probably related to treatment, n (%) ([6]; 10 mg, N = 6): 1 (16.7) n (%) | At least one TEAE, n (%) ([6]; 10 mg, N = 6): 2 (33.3) n (%) | At least 1 TEAE definitively related to treatment, n (%) ([6]; 20 mg, N = 6): 0 n (%) | At least 1 TEAE possibly related to treatment, n (%) ([6]; 20 mg, N = 6): 4 (66.7) n (%) | At least 1 TEAE probably related to treatment, n (%) ([6]; 20 mg, N = 6): 0 n (%) | At least one TEAE, n (%) ([6]; 20 mg, N = 6): 4 (66.7) n (%) | At least 1 TEAE definitively related to treatment, n (%) ([6]; all doses, N = 18): 0 n (%) | At least 1 TEAE possibly related to treatment, n (%) ([6]; all doses, N = 18): 4 (22.2) n (%) | At least 1 TEAE probably related to treatment, n (%) ([6]; all doses, N = 18): 1 (5.6) n (%) | At least one TEAE, n (%) ([6]; all doses, N = 18): 6 (33.3) n (%)
